# Test results taken from patent publication US6218431A, “Substituted biphenyls” (Bayer Corporation, priority 1997, dated 2001).
# Molecular target: T1, glucagon receptor (Homo sapiens, UniProt P47871)
# T1 construct: expressed in transfected cells; host or cells: Chinese Hamster Ovary cells (CHO-HGR), membranes
# Experiment: glucagon receptor binding assay (125I-glucagon, CHO-HGR membranes)
# Conditions: 20 μM; reported where 20 μM did not reduce glucagon binding by 50%
# Procedure, shortened: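 Membranes from CHO cells expressing glucagon receptor (10 ug protein) in Tris pH 7.4 buffer with EDTA, BSA and bacitracin, incubated with test compound and 125I-glucagon (9 fmol) 60 min at room temperature. Bound radioactivity counted after filtration; nonspecific binding defined with 1 μM native glucagon; 0.5% DMSO.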
# T1 sequence (P47871 26-477): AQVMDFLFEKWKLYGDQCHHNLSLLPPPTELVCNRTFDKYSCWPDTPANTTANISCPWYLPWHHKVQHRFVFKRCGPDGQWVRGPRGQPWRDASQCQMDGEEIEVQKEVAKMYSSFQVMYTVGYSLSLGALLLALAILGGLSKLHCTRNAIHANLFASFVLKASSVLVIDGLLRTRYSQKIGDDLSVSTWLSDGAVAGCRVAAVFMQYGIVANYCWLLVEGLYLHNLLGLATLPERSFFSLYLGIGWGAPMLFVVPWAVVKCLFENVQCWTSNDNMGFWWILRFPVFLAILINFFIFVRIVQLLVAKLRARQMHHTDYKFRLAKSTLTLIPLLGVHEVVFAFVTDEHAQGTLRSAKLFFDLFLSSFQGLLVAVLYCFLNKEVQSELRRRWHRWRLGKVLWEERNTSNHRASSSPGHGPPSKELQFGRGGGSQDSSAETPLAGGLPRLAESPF
row,SMILES,inhibition at 20 µM
1,C=Cc1c(CC)nc(CC)c(CO)c1-c1ccccc1 [Example 8],17%
2,"CC(C)c1nc(C(C)C)c(CSc2ccc(O)cc2)c(-c2ccc(F)cc2)c1CO [Example 55, 2,6-Diisopropyl-3-hydroxymethyl-4-(4-fluorophenyl)-5-[(4-hydroxy-phenyl)thio]methylpyridine]",15.7%
3,"CC(C)c1nc(C(C)C)c(Cn2ccnc2)c(-c2ccc(F)cc2)c1CO [Example 76, 2,6-Diisopropyl-3-hydroxymethyl-4-(4-fluorophenyl)-5-(imidazol-1-yl)-methylpyridine]",5.18%
4,CC(C)c1nc(C(C)C)c(CN2CCC(c3ccccc3)CC2)c(-c2ccc(F)cc2)c1CO [Example 72],42.1%

# Second part, the molecule after the results:
row,inhibition at 20 µM,SMILES
1,33.1%,"CCCCCc1c(C(C)C)nc(C(C)C)c(CO)c1-c1ccccc1C [Example 142, 2,6-Diisopropyl-3-hydroxymethyl-4-(2-methylphenyl)-5pentylpyridine]"
2,29.1%,CC(C)c1nc(C(C)C)c(CCCCCCCN(C)C)c(-c2ccc(F)cc2)c1CO [Example 90]
3,39.6%,"CCCCC(OC)c1c(C(C)C)nc(C(C)C)c(CO)c1-c1ccc(F)cc1 (racemic) [Example 100, (±)-2,6-Diisopropyl-3-hydroxymethyl-4-(4-fluorophenyl)-5-(1-methoxy-pentyl)pyridine]"
4,38.8%,"CCCCN(CCCC)Cc1c(C(C)C)nc(C(C)C)c(CO)c1-c1ccc(F)cc1 [Example 80, 2,6-Diisopropyl-3-hydroxymethyl-4-(4fluorophenyl)-5-(dibutylamino)-methylpyridine]"
5,37.3%,"CCCC=Cc1c(C(C)C)nc(C(C)C)c(CO)c1-c1ccc(CC)cc1 [Example 131, 2,6-Diisopropyl-3-hydroxymethyl-4-(4-ethylphenyl)-5-(pent-1-enyl)-pyridine]"
6,26.2%,"CCCCCc1c(C(C)C)nc(C(C)C)c(CN)c1-c1ccc(F)cc1 [Example 121, 2,6-Diisopropyl-3-aminomethyl-4-(4fluorophenyl)-5-pentylpyridine]"
7,40.9%,"CCCC=Cc1c(C(C)C)nc(C(C)C)c(CO)c1-c1ccc([S+](C)[O-])cc1 (stereo not drawn) [Example 175, 2,6-Diisopropyl-3-hydroxymethyl-4-[4-(methylsulfinyl)phenyl]-5-(pent-1-enyl)pyridine]"

# Same assay, conditions: 125I-glucagon; 60 min at room temperature; read-out: IC50
row,SMILES,IC50
1,"CC(C)CCCc1c(C(C)C)nc(C(C)C)c(CO)c1-c1ccc(F)cc1 [Example 30, 2,6-Diisopropyl-3-hydroxymethyl-4-(4-fluorophenyl)-5-(4-methylpentyl)pyridine]",900 nM
2,CC=Cc1c(C(C)C)nc(C(C)C)c(CO)c1-c1ccccc1 [Example 12],1700 nM
3,CC(C)c1nc(C(C)C)c(CCCC2OCCO2)c(-c2ccc(F)cc2)c1CO [Example 46],9000 nM
4,"CCCCCc1c(C(C)C)nc(C(C)C)c(CO)c1-c1cccc(O)c1 [Example 153, 2,6-Diisopropyl-3-hydroxymethyl-4-(3-hydroxyphenyl)-5-pentylpyridine]",6000 nM
5,"Cc1ccccc1SCc1c(C(C)C)nc(C(C)C)c(CO)c1-c1ccc(F)cc1 [Example 58, 2,6Diisopropyl-3-hydroxymethyl-4-(4-fluorophenyl)-5-[(2-methyl-phenyl)thio]methylpyridine]",1500 nM
6,"Cc1ccc(CCc2c(C(C)C)nc(C(C)C)c(CO)c2-c2ccc(F)cc2)cc1 [Example 45, 2,6-Diisopropyl-3-hydroxyl methyl-4-(4-fluorophenyl)-5-[2-(4-methyl-phenyl)ethyl]pyridine]",1100 nM
7,"CCCCCc1c(C(C)C)nc(C(C)C)c(CO)c1-c1ccccc1O [Example 163, 2,6-Diisopropyl-3-hydroxymethyl-4-(2-hydroxyphenyl)-5-pentylpyridine]",500 nM
8,"CC(C)c1nc(C(C)C)c(CO)c(-c2ccc(F)cc2)c1C=CCCc1ccccc1 [Example 38, 2,6-Diisopropyl-3-hydroxymethyl-4-(4-fluorophenyl)-5-(4phenyl-1-butenyl)pyridine]",600 nM
9,"CC(C)c1nc(C(C)C)c(CSc2c(F)c(F)cc(F)c2F)c(-c2ccc(F)cc2)c1CO [Example 53, 2,6-Diisopropyl-3-hydroxymethyl-4-(4-fluorophenyl)-5-[(2,3,5,6-tetra-fluorophenyl)thio]methylpyridine]",4900 nM
10,"CCc1ccc(SCc2c(C(C)C)nc(C(C)C)c(CO)c2-c2ccc(F)cc2)cc1 [Example 62, 2,6-Diisopropyl-3-hydroxymethyl-4-(4-fluorophenyl)-5-[(4-ethyl-phenyl)thio]methylpyridine]",1100 nM
11,"CCCCCc1c(C(C)C)nc(C(C)C)c(CO)c1-c1ccc(Cl)cc1 [Example 144, 2,6-Diisopropyl-3-hydroxymethyl-4-(4-chlorophenyl)-5-pentylpyridine]",800 nM

# Further lines, results first:
row,IC50,SMILES
1,10500 nM,"CCCCCc1c(C(C)C)nc(C(C)C)c(CO)c1-c1ccoc1 [Example 188, 2,6-Diisopropyl-3-hydroxymethyl-4-(3-furyl)-5-pentylpyridine]"
2,12000 nM,"CCCCCc1c(C(C)C)nc(C(C)C)c(C(O)CO)c1-c1ccc(F)cc1 (racemic) [Example 124, (±)-2,6-Diisopropyl-3-(1,2-dihydroxyethyl)-4-(4-fluorophenyl)-5-pentyl-pyridine]"
3,1900 nM,"Cc1ccccc1CCCc1c(C(C)C)nc(C(C)C)c(CO)c1-c1ccc(F)cc1 [Example 84, 2,6-Diisopropyl-3-hydroxymethyl-4-(4-fluorophenyl)-5-[3-(2-methylphenyl)propyl]pyridine]"
4,14000 nM,"COC(C)c1c(C(C)C)nc(C(C)C)c(CO)c1-c1ccc(F)cc1 (racemic) [Example 98, (±)-2,6-Diisopropyl-3-hydroxymethyl-4-(4-fluorophenyl)-5-(1-methoxyethyl)pyridine]"
5,6300 nM,"C=CCOCc1nc(C(C)C)c(CO)c(-c2ccc(F)cc2)c1CCCCC [Example 203, 2-(Prop-2-enyloxy)methyl-3-pentyl-4-(4-fluorophenyl)-5-hydroxymethyl-6-isopropylpyridine]"
6,19000 nM,"CCCCCc1c(C=CC(=O)OC)nc(C(C)C)c(CO)c1-c1ccc(F)cc1 [Example 215, 2-(2-Carbomethoxyethenyl)-3-pentyl-4-(4-fluorophenyl)-5-hydroxymethyl-6-isopropylpyridine]"
7,9000 nM,"CCCCCc1c(COCC)nc(C(C)C)c(CO)c1-c1ccc(F)cc1 [Example 202, 2-Ethoxymethyl-3-pentyl-4-(4-fluorophenyl)-5-hydroxymethyl-6-isopropylpyridine]"
8,130 nM,"Cc1ccc(SCc2c(C(C)C)cc(C(C)C)c(C(C)O)c2-c2ccc(F)cc2)cc1 (single isomer, unassigned; (+)) [Example 249, (+)-3,5-Diisopropyl-2-[(p-tolylthio)methyl]-6-(1-hydroxyethyl)-4'-fluoro-1,1'-biphenyl]"
9,100 nM,"CCCCCc1c(C(C)C)nc(C(C)C)c(C(C)O)c1-c1ccccc1O (single isomer, unassigned) [Example 164-D2, 2,6-Diisopropyl-3-(1-hydroxyethyl)-4-(2-hydroxyphenyl)-5-pentylpyridine]"
10,7500 nM,Cc1c(C(C)C)nc(C(C)C)c(CO)c1-c1ccc(F)cc1 [Example 81]
11,800 nM,"CCCCCc1c(CCC(C)C)nc(C(C)C)c(CO)c1-c1ccc(F)cc1 [Example 229, 2-Isopropyl-3-hydroxymethyl-4-(4-fluorophenyl)-5-pentyl-6-(3-methylbutyl)pyridine]"
